As a reminder, the inhibition is the relative decrease from the control value, in per cent. A lower inhibition goes with a weak effect.

The values that follow come from ChEMBL document CHEMBL1128084, “A general method for synthesis of ether phospholipids with -linolenic acid and their properties” (Bioorg Med Chem Lett, 1995).

A short description of the experiment: Inhibiting aggregation of rabbit platelet induced by platelet-activating factor. The note with it: Oryctolagus cuniculus; concentration not given here.

Each structure is given as a SMILES string.

For the compound `CC/C=C/C/C=C/C/C=C/CCCCCCCCC(=O)O[C@@H](COCCCCCCCCCCCCCCCC)COP(=O)([O-])OCC[N+](C)(C)C`, the inhibition stood at 4.3%.
